Assay results published in patent publication US20070010537A1, “Fused pyramidine derivative and use thereof” (priority 2004, published 2007).
Counter-ions that a name gives are not always drawn.

Target: T1, human GnRH receptor (Homo sapiens, UniProt P30968)
T1 construct: expressed in transfected cells; host or cells: CHO (Chinese Hamster Ovary) cells
T1 sequence (P30968 1-328): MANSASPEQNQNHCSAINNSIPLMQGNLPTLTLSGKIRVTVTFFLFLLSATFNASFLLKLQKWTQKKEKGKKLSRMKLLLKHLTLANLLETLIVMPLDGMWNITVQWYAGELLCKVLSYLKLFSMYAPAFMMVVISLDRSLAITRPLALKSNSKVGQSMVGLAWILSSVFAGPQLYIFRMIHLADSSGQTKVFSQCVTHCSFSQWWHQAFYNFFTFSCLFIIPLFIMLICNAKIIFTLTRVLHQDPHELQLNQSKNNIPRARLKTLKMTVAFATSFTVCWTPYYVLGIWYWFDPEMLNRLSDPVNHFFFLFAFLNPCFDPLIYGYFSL
Assay: 125I-leuprorelin binding assay, human GnRH receptor CHO cell membrane fraction
Conditions: 10 nM of the testing compound, room temperature for 1 hour, read-out: Binding inhibitory ratio (%)
Procedure: (1) Production of ^125I-Leuprorelin
10 μL of a 3×10^−4 M aqueous solution of leuprorelin and 10 μL of 0.01 mg/mL lactoperoxidase were placed in a tube, and 10 μL (37 MBq) of a Na^125I solution was added thereto. After stirring, 10 μL of 0.001% H2O2 was added to allow the mixture to undergo a reaction at room temperature for 20 minutes. 700 μL of a 0.05% TFA solution was added to stop the reaction, and purification by reversed phase HPLC was carried out. The conditions for HPLC are described below. ^125I-leuprorelin was eluted at a retention time of 26 to 27 minutes.
(2) Production of CHO (Chinese Hamster Ovary) Cell Membrane Fraction Containing Human GnRH Receptor
Human GnRH receptor-expressing CHO cells were cultured until the cells were reached a 90% confluent state in a T-150 flask. The cells were separated using 0.02% EDTA-PBS and were centrifuged at 500×g for 5 minutes. A homogenate buffer for cells (10 mM NaHCO3, 1 mM EDTA, 1 mM PMSF, 0.5 μg/mL Pepstatin, 2 μg/mL Leupeptin, pH 7.4) was added to the cell pellet, and the mixture was homogenized with a Polytron homogenizer. After centrifugation of the homogenate at 4° C. and at 1000×g for 10 minutes, the supernatant was placed in an ultracentrifuge tube and was centrifuged at 4° C. and at 49,300×g for 1 hour to obtain a precipitate of a membrane fraction. This precipitate was suspended in an assay buffer (50 mM Tris-HCl, 150 mM NaCl, 5 mM EDTA, pH 7.4) and then dispensed and stored at −80° C., so that the suspension can be thawed every time it is taken for use.
(3) Measurement of the Binding Inhibitory Rate of 125I-Leuprorelin
A ^125I-leuprorelin binding assay was carried out using 200 μL of an assay buffer containing 10 μg of human GnRH receptor membrane fraction, […] of ^125I-leuprorelin and 10 nM of the testing compound.
The non-specific binding radioactivity was measured in the presence of 1 μM of non-labeled leuprorelin. After leaving the mixture to stand at room temperature for 1 hour, 125I-leuprorelin was captured on a GF/C filter (PerkinElmer, Inc.), and the filter was washed with ice-cold 50 mM Tris-HCl (pH 7.4) using a cell harvester. After drying the filter, a liquid scintillation cocktail for microplate was added, and the membrane-bound radioactivity was measured using a TopCount.
The value of (TB-SB)/(TB-NSB)×100 (SB: radioactivity upon addition of the compound, TB: maximum binding radioactivity, NSB: non-specific binding radioactivity) was calculated to determine the binding inhibitory rate in the presence of 10 nM of each testing material.

Row | SMILES | inhibition at 0.01 µM [%]
1 | CN(C(=O)c1ccc(Cl)c(-n2c(=O)[nH]c3cccc(CO)c3c2=O)c1)c1ccccn1 [Example 46(1), 4-Chloro-3-[5-(hydroxymethyl)-2,4-dioxo-1,4-dihydroquinazolin-3(2H)-yl]-N-methyl-N-pyridin-2-ylbenzamide] | 98.2
2 | O=C(O)c1cccc2[nH]c(=O)n(-c3cc(S(=O)(=O)N4CCCc5ccccc54)ccc3Cl)c(=O)c12 [Example 31, 3-[2-Chloro-5-(3,4-dihydroquinolin-1(2H)-ylsulfonyl)phenyl]-2,4-dioxo-1,2,3,4-tetrahydroquinazoline-5-carboxylic acid] | 98.2
3 | N#Cc1sc(S(=O)(=O)N2CCCCc3ccccc32)cc1-n1c(=O)[nH]c2ccccc2c1=O [Example 42, 3-(2,4-Dioxo-1,4-dihydroquinazolin-3(2H)-yl)-5-(2,3,4,5-tetrahydro-1H-1-benzazepin-1-ylsulfonyl)thiophene-2-carbonitrile] | 77.4
4 | CN(C(=O)c1cc(-n2c(=O)[nH]c3cccc(CO)c3c2=O)c(Cl)s1)c1ccccc1Cl [Example 73(1), 5-Chloro-N-(2-chlorophenyl)-4-[5-(hydroxymethyl)-2,4-dioxo-1,4-dihydroquinazolin-3(2H)-yl]-N-methylthiophene-2-carboxamide] | 91.5
5 | NC(=O)c1cccc2[nH]c(=O)n(-c3cc(S(=O)(=O)N4CCCc5ccccc54)ccc3Cl)c(=O)c12 [Example 85, 3-[2-Chloro-5-(3,4-dihydroquinolin-1(2H)-ylsulfonyl)phenyl]-2,4-dioxo-1,2,3,4-tetrahydroquinazoline-5-carboxamide] | 94
6 | COC(=O)c1cccc2[nH]c(=O)n(-c3cc(S(=O)(=O)N4CCCc5ccccc54)ccc3Cl)c(=O)c12 [Example 30, Methyl 3-[2-chloro-5-(3,4-dihydroquinolin-1(2H)-ylsulfonyl)phenyl]-2,4-dioxo-1,2,3,4-tetrahydroquinazoline-5-carboxylate] | 98
7 | O=c1[nH]c2ccccc2c(=O)n1-c1cc(S(=O)(=O)N2CCCCc3sccc32)ccc1Cl [Example 7(70), 3-[2-Chloro-5-(5,6,7,8-tetrahydro-4H-thieno[3,2-b]azepin-4-ylsulfonyl)phenyl]quinazoline-2,4(1H,3H)-dione] | 94.5
8 | CC(C)(O)c1cccc2[nH]c(=O)n(-c3cc(S(=O)(=O)N4CCCc5ccccc54)ccc3Cl)c(=O)c12 [Example 100(1), 3-[2-Chloro-5-(3,4-dihydroquinolin-1(2H)-ylsulfonyl)phenyl]-5-(1-hydroxy-1-methylethyl)quinazoline-2,4(1H,3H)-dione] | 99.9
9 | O=c1[nH]c2ccccc2c(=O)n1-c1cc(S(=O)(=O)N2CCCCc3ccccc32)ccc1Cl [Example 7(5), 3-(2-Chloro-5-(2,3,4,5-tetrahydro-1H-1-benzazepin-1-ylsulfonyl)phenyl)-2,4(1H,3H)-quinazolinedione] | 95.6
10 | CN(C(=O)c1cc(-n2c(=O)[nH]c3cccc(CO)c3c2=O)c(Cl)s1)C1CCCCC1 [Example 73, 5-Chloro-N-cyclohexyl-4-[5-(hydroxymethyl)-2,4-dioxo-1,4-dihydroquinazolin-3(2H)-yl]-N-methylthiophene-2-carboxamide] | 79
11 | Cc1cccc(N(C)C(=O)c2cc(-n3c(=O)[nH]c4cccc(CO)c4c3=O)c(Cl)s2)c1 [Example 73(5), 5-Chloro-4-[5-(hydroxymethyl)-2,4-dioxo-1,4-dihydroquinazolin-3(2H)-yl]-N-methyl-N-(3-methylphenyl)thiophene-2-carboxamide] | 95.6
12 | Cc1ccccc1N(C)C(=O)c1cc(-n2c(=O)[nH]c3cccc(CO)c3c2=O)c(Cl)s1 [Example 73(4), 5-Chloro-4-[5-(hydroxymethyl)-2,4-dioxo-1,4-dihydroquinazolin-3(2H)-yl]-N-methyl-N-(2-methylphenyl)thiophene-2-carboxamide] | 82.2
13 | O=c1[nH]c2ccccc2c(=O)n1-c1cc(S(=O)(=O)N2CCCOc3ccccc32)ccc1Cl [Example 7(8), 3-(2-Chloro-5-(3,4-dihydro-1,5-benzoxazepin-5(2H)-ylsulfonyl)phenyl)-2,4(1H,3H)-quinazolinedione] | 87.6
14 | O=c1[nH]c2ccccc2c(=O)n1-c1cc(S(=O)(=O)N2CCCc3ccccc32)ccc1Cl [Example 6(4), 3-(2-Chloro-5-(3,4-dihydroquinolin-1(2H)-ylsulfonyl)phenyl)quinazoline-2,4(1H,3H)-dione] | 88.5
15 | CN(c1ccccc1)S(=O)(=O)c1ccc(Cl)c(-n2c(=O)[nH]c3ccccc3c2=N)c1 [Example 8, 4-Chloro-3-(4-imino-2-oxo-1,4-dihydro-3(2H)-quinazolinyl)-N-methyl-N-phenylbenzenesulfonamide trifluoroacetate] | 84.7
16 | O=c1[nH]c2ccccc2c(=O)n1-c1cc(S(=O)(=O)N2CCCc3ccccc32)ccc1F [Example 7(22), 3-[5-(3,4-Dihydroquinolin-1(2H)-ylsulfonyl)-2-fluorophenyl]quinazoline-2,4(1H,3H)-dione] | 75.5
17 | N=c1c2ccccc2[nH]c(=O)n1-c1cc(S(=O)(=O)N2CCCc3ccccc32)ccc1Cl [Example 8(1), 3-(2-Chloro-5-(3,4-dihydro-1(2H)-quinolinylsulfonyl)phenyl)-4-imino-3,4-dihydro-2(1H)-quinazoline trifluoroacetate] | 91.7
18 | CN(C(=O)c1ccc(Cl)c(-n2c(=O)[nH]c3ccccc3c2=O)c1)c1ccccc1 [Example 14, 4-Chloro-3-(2,4-dioxo-1,4-dihydroquinazolin-3(2H)-yl)-N-methyl-N-phenylbenzamide] | 88.9
19 | O=c1[nH]c2cccc(CO)c2c(=O)n1-c1cc(S(=O)(=O)N2CCCCc3ccccc32)sc1Cl [Example 47, 3-[2-Chloro-5-(2,3,4,5-tetrahydro-1H-1-benzazepin-1-ylsulfonyl)-3-thienyl]-5-(hydroxymethyl)quinazoline-2,4(1H,3H)-dione] | 94.8
20 | CC(C)CN(C)C(=O)c1cc(-n2c(=O)[nH]c3cccc(CO)c3c2=O)c(Cl)s1 [Example 89, 5-Chloro-4-[5-(hydroxymethyl)-2,4-dioxo-1,4-dihydroquinazolin-3(2H)-yl]-N-isobutyl-N-methylthiophene-2-carboxamide] | 76.2
21 | O=c1[nH]c2cccc(CO)c2c(=O)n1-c1cc(S(=O)(=O)N2CCCc3ccccc32)ccc1Cl [Example 36, 3-[2-Chloro-5-(3,4-dihydroquinolin-1(2H)-ylsulfonyl)phenyl]-5-(hydroxymethyl)quinazoline-2,4(1H,3H)-dione] | 96.7
22 | CN(C(=O)c1cc(-n2c(=O)[nH]c3cccc(CO)c3c2=O)c(Cl)s1)c1cccc(Cl)c1 [Example 73(2), 5-Chloro-N-(3-chlorophenyl)-4-[5-(hydroxymethyl)-2,4-dioxo-1,4-dihydroquinazolin-3(2H)-yl]-N-methylthiophene-2-carboxamide] | 93.8
23 | CN(C(=O)c1cc(-n2c(=O)[nH]c3cccc(CO)c3c2=O)c(Cl)s1)c1ccccc1 [Example 21(12), 5-Chloro-4-[5-(hydroxymethyl)-2,4-dioxo-1,4-dihydroquinazolin-3(2H)-yl]-N-methyl-N-phenylthiophene-2-carboxamide] | 84.2
